Paper PMC10442743 (Dalton Transactions (Cambridge, England : 2003), 2023)
Like-named read-outs stand apart in the source and are kept apart here.

Tests used:
[1] = test system: 6-mer dsDNA (DNA, duplex) AGGCAG/CTGCCT; assay: ESI tandem mass spectrometry; settings: MilliQ water pH 7, 37 °C, 3:1 mixed; 24 h or 72 h (ESI); non-covalent
[2] = test system: 14-mer ssDNA (DNA, single strand) ATACATGGTACATA; assay: ESI tandem mass spectrometry; settings: MilliQ water pH 7, 37 °C, 24 h; compound:DNA 3:1 mixed; adduct seen as [Ru(toluene)(PPh3)]2+; non-covalent
MDA-MB-231 [3] = assay: MTT cytotoxicity assay, MDA-MB-231 cells; format: cell-based, human; settings: MTT
Method: (§1) The cytotoxicity of 1–11CA was assessed against human breast cancer MCF-7 and MDA-MB-231 cells, and non-tumorigenic adherent mouse fibroblast connective tissue L929 cells using the MTT assay after 24 and 72 h (Tables S5 ^† and Table 1, respectively).
(§2) Then, necessary dilutions were made using the supplement DMEM, to prepare the range of tested concentrations. Since DMSO was used to solubilize the compounds, a supplemented DMEM + DMSO (at the same percentage as in the sequential dilutions) was considered as a control in the 3-[4,5-dimetylthiazole-2-yl]-2,5-diphenyltetrazolium bromide (MTT) assay.
(§3) L929, MCF-7, and MDA-MB-231 cell lines were cultured in DMEM supplemented with 10% (v/v) FBS and 1% (v/v) of penicillin–streptomycin. The cells were incubated in a humidified chamber at 37 °C under saturated air with a 5% CO2 atmosphere. Cells were passed at 80%–90% of confluency with 0.25% (w/v) trypsin and the cell culture media was changed every 2–3 days.
(§4) The compounds were tested on two breast cancer cell lines (MCF-7 and MDA-MB-231) and L929 fibroblasts, used as a reference for the safety evaluation according to ISO 10993-1:2009 “Biological evaluation of medical devices”. Cells were seeded on sterile 96-well plates at 50 000 cells per well (L929) and 20 000 cells per well (MCF-7 and MDA-MB-231) in supplemented DMEM medium (100 μL) for 24 h. The culture medium was removed and new media containing different concentrations of the compounds (0–1000 μM) was added to the wells (100 μL). Control cells were incubated under the same conditions in the absence of a compound. Cells were incubated for 24 and 72 h under the same conditions described above. Then, the medium was removed, and the cells were incubated with 3-(4,5-dimethylthiazol-2-yl)-2,5-diphenyltetrazolium bromide (MTT; 0.5 mg mL^−1) for 3 h. After this time, the medium was removed, and formazan crystals were solubilized with DMSO (100 μL per well). The absorbance in each well was read on a SynergyTM HT Multimode microplate reader (BioTek Instruments; Winooski, VT, USA) at 570 and 630 nm (for background correction), and the cell viability was calculated according to the following equation (eqn (1)):1 [drawing 3] where OD570(sample) and OD630(sample) are the optical densities of the solutions containing the compounds and OD570(control) and OD630(control) are controls without compound.
(§5) Each apoptosis value determination represents the mean ± standard deviation of 2 independent assays. The IC50 values were obtained using GraphPad Prism software and ANOVA (analysis of variance) was performed to determine the statistical difference between the IC50 values of different cell lines.

L929 = assay: MTT cytotoxicity assay, L929 fibroblasts (and selectivity index); format: cell-based, mouse; settings: for SI (selectivity index): IC50 L929 divided by average IC50 of the breast cancer cell lines; for IC50: MTT
Method: as §1, §2, §3, §4, §5

MCF-7 [4] = assay: MTT cytotoxicity assay, MCF-7 cells; format: cell-based, human; settings: MTT
Method: as §1, §2, §3, §4, §5

[5] = n-octanol/water; ESI ref 13; cited from earlier work
[6] = Solubility in water (ICP-MS); settings: 25 °C, limit of detection = 5 ppt
Method: sonication, the mixtures were stirred at 25 °C for 1 h. The saturated solutions were filtered
to remove any insoluble solids, dissolved in 0.5 mL of MilliQ water, and analyzed using
ICP-MS. Samples were submitted to acidic digestion with 2 mL of concentrated HNO3
min to heat to 100°C and keep at 100°C for 60 min. After the digestion, the sample
volumes were precisely adjusted to 5 mL with MilliQ water. Samples were further diluted
30 times with 2% HNO3 solution and their Ru content was analyzed by ICP-MS using
standard mode on NexIon 350 D ICP-MS instrument (PerkinElmer). Yttrium was added
as an internal standard at a concentration of 2 ppb to all the solution and Ru quantitation
was performed using an external calibration curve with standards in the 0.05-50 ppb

MDA-MB-231 [7] = assay: FITC Annexin V / 7-AAD apoptosis assay, MDA-MB-231; format: cell-based, human; settings: 24 h at 24 h IC50 dose
Method: Apoptosis in MCF-7 and MDA-MB-231 cells was determined using FITC Annexin V with a 7-aminoactinomycin D (7-AAD) staining kit (BioLegend®, California, US) according to the manufacturer's instructions. […] Following incubation, the cells were washed with PBS twice and detached using 0.25% trypsin. After obtaining cell pellets by centrifugation (300g for 5 min), the cells were resuspended in 100 μL of PBS, followed by the addition of 10 μL of FITC Annexin V and 7-AAD, and then incubated for 15 min at room temperature while protected from light. After the incubation period, 200 μL of binding buffer was added to the cell suspension and the samples were analyzed immediately using a BD Accuri C6 flow cytometer with a minimum of 10 000 events. The assays were performed in quadruplicate and the results were analyzed with Accuri C6 analysis software.
as §5, with “Each cell viability result represents the mean ± standard deviation (SD) for n = 4 replicates in each of 3 independent assays, resulting in 12 independent values. Each” for “Each”

[8] = n-octanol/water partition coefficient (shake-flask, ICP-MS)
Method: The saturated solutions were filtered
(DigiPREP Jr. 15ml, 40 Pos, SCP Science). The digestion program was the following: 15
After the digestion, the sample
Samples were further diluted
range. All measurements were performed in triplicates.
lipophilicity of a compound. This assay was performed following the Shake-flask method
organic and aqueous phase. Aliquots of each phase were taken and analyzed separately
range. The partition coefficient was calculated as P!"=
respectively. All measurements were performed in triplicates.

[9] = Stability in solution (ESI-MS, NMR); settings: 100% d6-DMSO, 1 mM, 72 h
Method: The stability of 11CA under pseudo-physiological conditions was assessed using ESI-MS and ^1H and ^31P NMR spectroscopy.
Stability studies were performed on 11CA over 72 h at 37 °C.
The stability of 11Cl was also monitored over
72 h via 1H and 31P NMR spectroscopy. The complex was fully dissolved in d6-DMSO,
diluted with D2O to reach 10% d6-DMSO in D2O (1 mM final concentration) and, finally,
the pD was adjusted to 7.2 ± 0.1 (neutral conditions). Furthermore, the stability of 11Cl
and 11BPh4 was also assessed in 100% d6-DMSO (1 mM final concentration) as a highly

[10] = Molar conductivity in acetonitrile; format: physicochemical; settings: 1 mM in acetonitrile, 25 °C
Method: The molar conductivity (ΛM, reported as S·cm2·mol–1) of solutions of 11CA in acetonitrile (1 mM) were measured in a Radiometer Copenhagen CDM92 equipped with a conductivity cell CDC641T glass platinum electrode at room temperature (25 °C). The conductivity of the pure solvent was used as standard controls.
Table S3. Solubility in water at 25 °C, n-octanol/water partition coefficient and molar conductivity of the 11CA. * below limit of detection = 5 ppt.

ct-DNA = settings: cited from earlier work
ctDNA = assay: Circular dichroism / induced circular dichroism with calf thymus DNA; settings: DNA
Method: Calf thymus (ct) DNA (Merck®) was used to perform the circular dichroism assay to detect conformational changes in the ctDNA induced by the compounds. CD spectral data was collected on a Chirascan™ V100 (Applied Photophysics) spectropolarimeter equipped with a large area Avalanche photodiodes detector and computer-controlled thermoelectrical cell holder using a 1 cm path length quartz cuvette. CD spectra of ctDNA in the absence and presence of different concentrations of 11Cl were recorded at wavelengths ranging from 320 to 190 nm under constant nitrogen flush at 25 °C. For each CD spectrum, the number of scans was set to 5, and spectral data were collected at 0.1 ms intervals. Additionally, methyl green (MG) and 4′,6-diamidino-2-phenylindole (DAPI), and propidium iodide (PI) were analyzed as minor and major groove binders and as an intercalator, respectively, to help identify the binding mode of 11Cl to DNA. Samples were prepared in 10 mM Tris-HCl buffer (pH 7.6) with 1 mM EDTA. The concentration of ctDNA was fixed at 100 μM (concerning base pairs) and the ctDNA to 11Cl ratio was varied between 0 and 1. The samples were incubated for 24 h at 37 °C and then analyzed in the CD spectropolarimeter.

MCF-7 [11] = settings: read-out: cytotoxicity (IC50) MCF-7, cited from earlier work
MDA-MB-231 [12] = settings: read-out: cytotoxicity (IC50) MDA-MB-231, cited from earlier work
[13] = 24 h exposure, read-out: IC50 (µM) (average ± standard deviation) 24 h MDA-MB-231
[14] = 72 h exposure, read-out: IC50 (μM) (average ± standard deviation) 72 h MDA-MB-231
[15] = 24 h exposure, read-out: IC50 (µM) (average ± standard deviation) 24 h L929
[16] = 72 h exposure, read-out: IC50 (μM) (average ± standard deviation) 72 h L929
[17] = 24 h exposure, read-out: IC50 (µM) (average ± standard deviation) 24 h MCF-7
[18] = 72 h exposure, read-out: IC50 (μM) (average ± standard deviation) 72 h MCF-7

Row | Structure (SMILES) | IC50 (MDA-MB-231 [3]; [13]) [µM] | IC50 (MDA-MB-231 [3]; [14]) [µM] | SI (selectivity index) (L929; 24 h) | IC50 (L929; [15]) [µM] | SI (selectivity index) (L929; 72 h) | IC50 (L929; [16]) [µM] | IC50 (MCF-7 [4]; [17]) [µM] | IC50 (MCF-7 [4]; [18]) [µM] | Solubility (μM) [6] | Solubility (μg/mL) [6] | average apoptosis percentage, MDA-MB-231 cells (MDA-MB-231 [7]) [%] | other results
1 | Cc1ccccc1.[Cl-].[Ru+2].c1ccc(P(c2ccccc2)c2ccccc2)cc1.c1ccc(P(c2ccccc2)c2ccccc2)cc1 | – | – | – | – | – | – | – | – | – | – | – | binding [1]: yes; binding [2]: yes
2 | Cc1ccccc1.[Cl][Ru]([Cl])[PH]12CN3CN(CN(C3)C1)C2 [Compound 4] | 384 ± 16 | 83 ± 4 | 1.7 | 723 ± 29 | 1.0 | 79 ± 4 | 474 ± 19 | 68 ± 7 | – | – | – | LogPow [5]: −1.5
3 | Cc1ccc(C(C)C)cc1.[Cl][Ru]([Cl])[PH]12CN3CN(CN(C3)C1)C2 [Compound 5] | 497 ± 12 | 71 ± 4 | 1.2 | 612 ± 30 | 1.3 | 84 ± 4 | 526 ± 19 | 57 ± 5 | – | – | – | LogPow [5]: > −1.8
4 | Cc1cccc[c]1[Ru+]([Cl])([PH]12CN3CN(CN(C3)C1)C2)[PH](c1ccccc1)(c1ccccc1)c1ccccc1.F[P-](F)(F)(F)(F)F (stereo not shown) [Compound 10] | 113 ± 14 | 2.8 ± 0.2 | 0.6 | 74 ± 5 | 10.5 | 31 ± 3 | 128 ± 30 | 3.1 ± 0.2 | 547 ± 117 µM | 475 ± 102 µg/mL | 41 | –
5 | Cc1cccc[c]1[Ru+]([Cl])([PH](c1ccccc1)(c1ccccc1)c1ccccc1)[PH](c1ccccc1)(c1ccccc1)c1ccccc1.c1ccc([B-](c2ccccc2)(c2ccccc2)c2ccccc2)cc1 [Compound 11BPh4] | 100 ± 8 | 1.7 ± 0.3 | 0.8 | 59 ± 5 | 3.5 | 3.9 ± 0.3 | 51 ± 5 | 0.52 ± 0.06 | below LOD | below LOD | 33 | LogPow [8]: > 3.5; stability in DMSO (NMR) [9]: No changes were observed; Conductivity (molar conductivity) [10]: 71 S·cm2/mol
6 | Cc1cccc[c]1[Ru+]([Cl])([PH](c1ccccc1)(c1ccccc1)c1ccccc1)[PH](c1ccccc1)(c1ccccc1)c1ccccc1.O=S(=O)([O-])C(F)(F)F [Compound 11OTf] | 4 ± 2 | 1.4 ± 0.1 | 1.5 | 5.8 ± 0.7 | 1.8 | 1.8 ± 0.2 | 4 ± 1 | 0.6 ± 0.07 | 1.1 ± 0.1 µM | 1.0 ± 0.1 µg/mL | 40 | LogPow [8]: 1.75 ± 0.18; Conductivity (molar conductivity) [10]: 173 S·cm2/mol
7 | Cc1cccc[c]1[Ru+]([Cl])([PH](c1ccccc1)(c1ccccc1)c1ccccc1)[PH](c1ccccc1)(c1ccccc1)c1ccccc1.[F][Sb-]([F])([F])([F])([F])[F] [Compound 11SbF6] | 21 ± 2 | 0.131 ± 0.009 | 0.4 | 7 ± 0.4 | 12.8 | 1.35 ± 0.09 | 11 ± 2 | 0.08 ± 0.01 | below LOD | below LOD | 95 | LogPow [8]: 2.01 ± 0.07; Conductivity (molar conductivity) [10]: 186 S·cm2/mol
8 | N=C(N)c1ccc(-c2cc3ccc(C(=N)N)cc3[nH]2)cc1 [DAPI] | – | – | – | – | – | – | – | – | – | – | – | Kprobe, binding constant of the probe to DNA (ct-DNA; used in eqn (4) ref 92): 5e+06 M⁻¹; CD band 268 nm, intensity change (ctDNA; 268 nm part of the 268−280 nm band): Hyperchromic; CD band 280 nm, intensity change (ctDNA; 280 nm part of the 268−280 nm band): Hypochromic; CD band 210 nm, intensity change (ctDNA; 24 h, 37 °C): Hypochromic; CD band 210 nm, wavelength shift (ctDNA; 24 h, 37 °C): Red; CD band 220 nm (hydrogen bonding), intensity change (ctDNA; 24 h, 37 °C): Hyperchromic; CD band 220 nm (hydrogen bonding), wavelength shift (ctDNA; 24 h, 37 °C): Blue shift; CD band 246 nm (helicity), intensity change (ctDNA; 24 h, 37 °C): Unchanged; CD band 246 nm (helicity), wavelength shift (ctDNA; 24 h, 37 °C): Unchanged; CD band 268−280 nm (base-pair stacking interactions), wavelength shift (ctDNA; 24 h, 37 °C): Unchanged
9 | CN(C)c1ccc(C(=C2C=CC(=[N+](C)C)C=C2)c2ccc([N+](C)(C)C)cc2)cc1.[Cl-].[Cl-] [MG, methyl green] | – | – | – | – | – | – | – | – | – | – | – | Kprobe, binding constant of the probe to DNA (ct-DNA; used in eqn (4) ref 91): 900000 M⁻¹; CD band 210 nm, intensity change (ctDNA; 24 h, 37 °C): Hypochromic; CD band 210 nm, wavelength shift (ctDNA; 24 h, 37 °C): Blue; CD band 220 nm (hydrogen bonding), intensity change (ctDNA; 24 h, 37 °C): Hyperchromic; CD band 220 nm (hydrogen bonding), wavelength shift (ctDNA; 24 h, 37 °C): Blue shift; CD band 246 nm (helicity), intensity change (ctDNA; 24 h, 37 °C): Hypochromic; CD band 246 nm (helicity), wavelength shift (ctDNA; 24 h, 37 °C): Unchanged; CD band 268−280 nm (base-pair stacking interactions), intensity change (ctDNA; 24 h, 37 °C): Unchanged; CD band 268−280 nm (base-pair stacking interactions), wavelength shift (ctDNA; 24 h, 37 °C): Unchanged
10 | N.N.O=C([O-])C1(C(=O)[O-])CCC1.[Pt+2] [carboplatin] | – | – | – | – | – | – | – | – | – | – | – | IC50 (MCF-7 [11]; literature value ref 43): 27.3 µM; IC50 (MDA-MB-231 [12]; literature value ref 44): 15.4 ± 3.3 µM
11 | N.N.[Cl][Pt][Cl] [cisplatin] | – | – | – | – | – | – | – | – | – | – | – | IC50 (MCF-7 [11]; literature value ref 41): 28 ± 6 µM; IC50 (MDA-MB-231 [12]; literature value ref 42): 38.7 ± 0.03 µM
